Patent publication US11384172B2, “Polymer, antimicrobial agent, disinfectant, antimicrobial material, disinfectant material, antimicrobial method, and disinfecting method” (JSR CORPORATION, priority 2015, dated 2022)

What was measured:
Experiment in all cases: Antimicrobial and disinfecting properties test (liquid medium dilution series, visual turbidity)
Type in all cases: cell-based
Conditions in all cases: 37° C., 16 hours
[1] = system: Klebsiella pneumoniae (KPC-2 producing strain, ST258)
Procedure: (5) Klebsiella pneumoniae (KPC-2 producing strain, ST258)
Into 897.6 μL of the prepared liquid medium, 102.4 μL of the above-described polymer aqueous solution was added so that the concentration of the polymer is 1024 μg/mL. This solution was diluted 2 times in wells of a 96-well plate to prepare a dilution series of 1024 μg/mL to 0.015625 μg/mL. Next, 5 μL of a bacterial liquid was added to each of the wells and incubated at 37° C. for 16 hours.

[2] = system: Pseudomonas aeruginosa (MP-1 producing strain, ST235)
Procedure: (§1) Into 500 mL of hexane, 10 g of the polymer obtained in each of the above Synthesis Examples was added dropwise over 2 hours, and then vacuum drying was performed at 40° C. for 24 hours. The powder thus obtained was used for a test.
(§2) 30.4 g of a medium (Mueller Hinton II) was weighed out, and dissolved in 800 mL of sterile water, and the resultant mixture was subjected to an autoclave treatment at 121° C. and 2 atm for 15 minutes.
(§3) Each of the bacteria of the following (1) to (8) was suspended in 1 mL of the liquid medium obtained in the above “preparation of liquid medium”, OD600 was measured, and a liquid medium was added so that the amount of bacteria is 1×10^8 cfu/mL to prepare each of the bacterial liquids.
(7) Pseudomonas aeruginosa (MP-1 producing strain, ST235)
(§4) A polymer (A-1) and water were mixed to prepare 10 mg/mL of a polymer aqueous solution. […]
(§5) The turbidity of each of the wells was visually discriminated and the growing state of the bacteria was confirmed. The concentrations of the dilution series, at which it was visually determined that the antimicrobial action and disinfecting action were performed without cloudiness, are shown in Table 3.
(§6) The antimicrobial and the disinfecting properties were evaluated in a similar manner as in Example 1 except that each of the compounds shown in Table 3 was used in place of the polymer (A-1) in Example 1. […]

[3] = system: A. baumannii (OXA-23 producing strain, ST2)
Procedure: as §1, §2, §3
(6) A. baumannii (OXA-23 producing strain, ST2)
as §4, §5, §6

[4] = system: E. coli (NDM-1 producing strain)
Procedure: as §1, §2, §3
(3) E. coli (NDM-1 producing strain)
as §4, §5, §6

[5] = system: S. aureus (drug sensitive strain, ATCC29213)
Procedure: as §1, §2, §3
(2) S. aureus (drug sensitive strain, ATCC29213)
as §4, §5, §6

[6] = system: MRSA (S. aureus methicillin-resistant strain)
Procedure: as §1, §2, §3
(8) MRSA (S. aureus methicillin-resistant strain)
as §4, §5, §6

[7] = system: E. coli (drug sensitive strain, DH5α)
Procedure: as §1, §2, §3
(1) E. coli (drug sensitive strain, DH5α)
as §4, §5, §6

[8] = system: E. coli (IMP-1 producing strain, ST131)
Procedure: as §1, §2, §3
(4) E. coli (IMP-1 producing strain, ST131)
as §4, §5, §6

SMILES: N=C(N)NC(N)=Nc1ccccc1 [Phenyl biguanide, phenyl biguanide]
- concentration of the dilution series at which antimicrobial and disinfecting action was visually determined without cloudiness [1]: >1024 µg/mL
- concentration of the dilution series at which antimicrobial and disinfecting action was visually determined without cloudiness [2]: >1024 µg/mL
- concentration of the dilution series at which antimicrobial and disinfecting action was visually determined without cloudiness [3]: 1024 µg/mL
- concentration of the dilution series at which antimicrobial and disinfecting action was visually determined without cloudiness [4]: 1024 µg/mL
- concentration of the dilution series at which antimicrobial and disinfecting action was visually determined without cloudiness [5]: >1024 µg/mL
- concentration of the dilution series at which antimicrobial and disinfecting action was visually determined without cloudiness [6]: >1024 µg/mL
- concentration of the dilution series at which antimicrobial and disinfecting action was visually determined without cloudiness [7]: >1024 µg/mL
- concentration of the dilution series at which antimicrobial and disinfecting action was visually determined without cloudiness [8]: 1024 µg/mL
